Test results taken from patent US7803801B2, “Aminopyridine compounds having Syk inhibitory activity” (Japan Tobacco, Inc., priority 2005, dated 2010).
Read-outs that look alike come from different tables or passages of the source.

Experiments:
[1] = test system: cultured human mast cells; experiment: Degranulation inhibition test using cultured human mast cells (IgE cross-linking, β-Hexosaminidase release); assay type: cell-based; settings: cultured human mast cells, anti-hIgE stimulation, β-Hexosaminidase index, average, read-out: human degranulation ave. IC50
Procedure, shortened: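 Degranulation was triggered by anti-hIgE (10 μg/mL final, 30 min, 37 °C) after a 10-min compound pretreatment (DMSO 0.1%) of cord-blood CD34+-derived mast cells primed 5 days with IL-4 and IgE. β-Hexosaminidase in supernatant was measured with p-nitrophenyl-GlcNAc substrate (A405), expressed against water-lysed total; IC50 (M).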

[2] = target: GST-Syk Full Protein (human) (Homo sapiens, UniProt P43405); experiment: Syk kinase inhibition test (HTRF method); assay type: biochemical; settings: HTRF, 100 μM ATP, 30 min room temperature, average; read-out: sykHTRF ave IC50
Procedure, shortened: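 HTRF read-out: after EDTA termination and 1 h with XL665-streptavidin and Eu-anti-phosphotyrosine, the 665/620 nm ratio was measured. The reaction ran 30 min at 20–25 °C with final 6.4 nM human GST-Syk, 250 nM biotinylated peptide, 100 μM ATP, pH 7.0 HEPES buffer, 2% DMSO.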

SMILES	IC50 ([1]; Mast cell) [nM]	IC50 [2] [nM]	IC50 ([1]; Homo sapiens, Mast cell) [nM]	IC50 [1] [nM]
Cc1ccnc(Nc2cccc(-c3cnc(CCc4ccc(NC(=O)CO)cc4)s3)n2)c1 [Compound A-237, 2-hydroxy-N-[4-(2-{5-[6-(4-methylpyridin-2-ylamino)pyridin-2-yl]thiazol-2-yl}ethyl)phenyl]acetamide]	100 to 1000	< 100		
Cc1ccnc(Nc2cccc(-c3cnc([C@H]4CC[C@H](C(=O)N5CCCC(O)C5)CC4)s3)n2)c1 (some centres unmarked) [Compound A-238]	100 to 1000	100 to 1000		
Cc1ccnc(Nc2cccc(-c3cnc([C@H]4CC[C@H](C(=O)N5CC[C@H](O)[C@H](O)C5)CC4)s3)n2)c1 [Compound A-239, ((3R,4S)-3,4-dihydroxypiperidin-1-yl)-(trans-4-{5-[6-(4-methylpyridin-2-ylamino)pyridin-2-yl]thiazol-2-yl}cyclohexyl)methanone]	100 to 1000	< 100		
Cc1ccnc(Nc2cccc(-c3cnc([C@H]4CC[C@H](C(=O)N5CC[C@@H](O)C5)CC4)s3)n2)c1 [Compound A-241, ((R)-3-hydroxypyrrolidin-1-yl)-(trans-4-{5-[6-(4-methylpyridin-2-ylamino)pyridin-2-yl]thiazol-2-yl}cyclohexyl)metanone]	> 1000	< 100		
Cc1ccnc(Nc2cccc(-c3cnc([C@H]4CC[C@H](C(=O)N5CCC(CO)CC5)CC4)s3)n2)c1 [Compound A-242]	100 to 1000	100 to 1000		
Cc1ccnc(Nc2cccc(-c3cnc(Cc4ccc(CO)cc4)s3)n2)c1 [Compound A-243, (4-{5-[6-(4-methylpyridin-2-ylamino)pyridin-2-yl]thiazol-2-ylmethyl}phenyl)methanol]	100 to 1000	< 100		
Cc1ccnc(Nc2cccc(-c3cnc(Cc4ccc(C(=O)N5C[C@@H](O)[C@@H](O)C5)cc4)s3)n2)c1 [Compound A-244]	100 to 1000	100 to 1000		
Cc1ccnc(Nc2cccc(-c3cnc(CCN)s3)n2)c1 [Compound A-245]	100 to 1000	100 to 1000		
Cc1ccnc(Nc2cccc(-c3cnc(CN4CCN(C(=O)CO)CC4)s3)n2)c1 [Compound A-246]	100 to 1000	100 to 1000		
Cc1ccnc(Nc2cccc(-c3cnc(CN4CCC(NC(=O)CO)CC4)s3)n2)c1 [Compound A-247]	100 to 1000	100 to 1000		
Cc1ccnc(Nc2cccc(-c3cnc(Cc4cccnc4)s3)n2)c1 [Compound A-248, N-(4-methylpyridin-2-yl)-N-[6-(2-pyridin-3-ylmethylthiazol-5-yl)pyridin-2-yl]amine]	100 to 1000	< 100		
Cc1ccnc(Nc2cccc(-c3cnc(CC4CCC(C(=O)O)CC4)s3)n2)c1 (centres unmarked) [Compound A-249]	100 to 1000	100 to 1000		
Cc1ccnc(Nc2cccc(-c3cnc(C4CCN(C(=O)N5CCC(=O)CC5)CC4)s3)n2)c1 [Compound A-250]		100 to 1000	100 to 1000	
Cc1ccnc(Nc2cccc(-c3cnc(C4CCN(C(=O)N5CCC(O)CC5)CC4)s3)n2)c1 [Compound A-251]	100 to 1000	100 to 1000		
CCOC(=O)CNC(=O)NCc1ncc(-c2cccc(Nc3cc(C)ccn3)n2)s1 [Compound A-252]	100 to 1000	100 to 1000		
Cc1ccnc(Nc2cccc(-c3cnc(CNC(=O)NCCO)s3)n2)c1 [Compound A-253]	100 to 1000	100 to 1000		
Cc1ccnc(Nc2cccc(-c3cnc(CNC(=O)NCC(=O)O)s3)n2)c1 [Compound A-254]	> 1000	100 to 1000		
Cc1ccnc(Nc2cccc(-c3cnc(CC(=O)N4C[C@@H](O)[C@@H](O)C4)s3)n2)c1 [Compound A-255]	100 to 1000	100 to 1000		
CC(=O)NCCc1ncc(-c2cccc(Nc3cc(C)ccn3)n2)s1 [Compound A-256]	100 to 1000	100 to 1000		
Cc1ccnc(Nc2cccc(-c3cnc(CCNC(=O)CO)s3)n2)c1 [Compound A-257]	100 to 1000	100 to 1000		
Cc1ccnc(Nc2cccc(-c3cnc(CCC4CCNCC4)s3)n2)c1 [Compound A-258, N-(4-methylpyridin-2-yl)-N-{6-[2-(2-piperidin-4-ylethyl)thiazol-5-yl]pyridin-2-yl}amine]	> 1000	< 100		
CC(=O)N1CCC(CCc2ncc(-c3cccc(Nc4cc(C)ccn4)n3)s2)CC1 [Compound A-259]	100 to 1000	100 to 1000		
Cc1ccnc(Nc2cccc(-c3cnc(CCC4CCN(S(C)(=O)=O)CC4)s3)n2)c1 [Compound A-260, N-(6-{2-[2-(1-methanesulfonylpiperidin-4-yl)ethyl]thiazol-5-yl}pyridin-2-yl)-N-(4-methylpyridin-2-yl)amine]	100 to 1000	< 100		

SMILES	IC50 ([1]; Mast cell) [nM]	IC50 [2] [nM]	IC50 ([1]; Homo sapiens, Mast cell) [nM]	IC50 [1] [nM]
Cc1ccnc(Nc2cccc(-c3cnc(CCNS(C)(=O)=O)s3)n2)c1 [Compound A-261]	100 to 1000	100 to 1000		
Cc1ccnc(Nc2cccc(-c3cnc(CNc4ccc(CC(=O)O)cc4)s3)n2)c1 [Compound A-262]	> 1000	100 to 1000		
Cc1ccnc(Nc2cccc(-c3cnc(CCC4CCN(C(=O)CO)CC4)s3)n2)c1 [Compound A-263, 2-hydroxy-1-[4-(2-{5-[6-(4-methylpyridin-2-ylamino)pyridin-2-yl]thiazol-2-yl}ethyl)piperidin-1-yl]ethanone]	100 to 1000	< 100		
Cc1ccnc(Nc2cccc(-c3cnc([C@H]4CC[C@H](C(=O)N(C)C)CC4)s3)n2)c1 [Compound A-264]	100 to 1000	100 to 1000		
CON(C)C(=O)[C@H]1CC[C@H](c2ncc(-c3cccc(Nc4cc(C)ccn4)n3)s2)CC1 [Compound A-265]	100 to 1000	100 to 1000		
Cc1ccnc(Nc2cccc(-c3cnc(C4CCN(C(=O)NCCO)CC4)s3)n2)c1 [Compound A-266]	100 to 1000	100 to 1000		
Cc1ccnc(Nc2cccc(-c3cnc([C@H]4CC[C@H](C(=O)NCCO)CC4)s3)n2)c1 [Compound A-267, N-(2-hydroxyethyl)-trans-4-{5-[6-(4-methylpyridin-2-ylamino)pyridin-2-yl]thiazol-2-yl}cyclohexanecarboxamide]	100 to 1000	< 100		
Cc1ccnc(Nc2cccc(-c3cnc([C@H]4CC[C@H](C(=O)NCCN5CCOCC5)CC4)s3)n2)c1 [Compound A-268, N-(2-morpholin-4-ylethyl)-trans-4-{5-[6-(4-methylpyridin-2-ylamino)pyridin-2-yl]thiazol-2-yl}cyclohexanecarboxamide]	100 to 1000	< 100		
Cc1ccnc(Nc2cccc(-c3cnc(CC4CCC(C(=O)N5CCC(O)CC5)CC4)s3)n2)c1 (centres unmarked) [Compound A-269]	100 to 1000	100 to 1000		
Cc1ccnc(Nc2cccc(-c3cnc(C4CCCC(C(=O)O)C4)s3)n2)c1 (centres unmarked) [Compound A-270]	> 1000	100 to 1000		
Cc1ccnc(Nc2cccc(-c3cnc(C4CCCC(C(=O)N5CCC(O)CC5)C4)s3)n2)c1 (centres unmarked) [Compound A-271]		100 to 1000		100 to 1000
Cc1ccnc(Nc2cccc(-c3cnc(C4CCCC(C(=O)N5CCC(O)CC5)C4)s3)n2)c1 (centres unmarked) [Compound A-272]	100 to 1000	100 to 1000		
Cc1ccnc(Nc2cccc(-c3cnc(C4CCCC(C(=O)N5C[C@@H](O)[C@@H](O)C5)C4)s3)n2)c1 (some centres unmarked) [Compound A-273]	> 1000	100 to 1000		
Cc1ccnc(Nc2cccc(-c3cnc([C@H]4CC[C@H](C(=O)N5CCCCC5)CC4)s3)n2)c1 [Compound A-274]	> 1000	100 to 1000		
Cc1ccnc(Nc2cccc(-c3cnc([C@H]4CC[C@H](C(=O)N5CCOCC5)CC4)s3)n2)c1 [Compound A-275]	100 to 1000	100 to 1000		
Cc1ccnc(Nc2cccc(-c3cnc(CCc4cccc(C(=O)O)c4)s3)n2)c1 [Compound A-276]	> 1000	100 to 1000		
Cc1ccnc(Nc2cccc(-c3cnc(CCc4cccc(CO)c4)s3)n2)c1 [Compound A-277, [3-(2-{5-[6-(4-methylpyridin-2-ylamino)pyridin-2-yl]thiazol-2-yl}ethyl)phenyl]methanol]	100 to 1000	< 100		
Cc1ccnc(Nc2cccc(-c3cnc(CNc4ccc(CC(=O)N5CCC(O)CC5)cc4)s3)n2)c1 [Compound A-278]	> 1000	100 to 1000		
Cc1ccnc(Nc2cccc(-c3cnc([C@H]4CC[C@H](C(=O)NCCc5ccccn5)CC4)s3)n2)c1 [Compound A-279]	100 to 1000	100 to 1000		
COC1CCN(C(=O)[C@H]2CC[C@H](c3ncc(-c4cccc(Nc5cc(C)ccn5)n4)s3)CC2)CC1 [Compound A-280]	100 to 1000	100 to 1000		
Cc1ccnc(Nc2cccc(-c3cnc([C@H]4CC[C@H](C(=O)N5CCC(O)C5)CC4)s3)n2)c1 (stereo partly drawn) [Compound A-282, (3-hydroxypyrrolidin-1-yl)-(trans-4-{5-[6-(4-methylpyridin-2-ylamino)pyridin-2-yl]thiazol-2-yl}cyclohexyl)methanone]	100 to 1000	< 100		
Cc1ccnc(Nc2cccc(-c3cnc([C@H]4CC[C@H](C(=O)N5CCNC(=O)C5)CC4)s3)n2)c1 [Compound A-283, 4-(trans-4-{5-[6-(4-methylpyridin-2-ylamino)pyridin-2-yl]thiazol-2-yl}cyclohexanecarbonyl)piperazin-2-one]	> 1000	< 100		
CC(=O)NC1CCN(C(=O)[C@H]2CC[C@H](c3ncc(-c4cccc(Nc5cc(C)ccn5)n4)s3)CC2)C1 (some centres unmarked) [Compound A-284]	100 to 1000	100 to 1000		
